Two compounds from US8426136B2, “Epigenetic modifications at TNFα as biomarkers for sensitivity to Smac mimetic-induced apoptosis” (Joyant Pharmaceuticals, Inc., priority 2009, dated 2013) can be followed below.

The test system of test [1] is TNFα mRNA. Kind of test: TNFα mRNA by semiquantitative RT-PCR in Colo205 cells. The test is classed as cell-based, human. How it is done: (§1) This procedure describes the semi-quantitative measurement of human TNFα mRNA levels in human cell culture.
(§2) Cell Treatment: cells were plated in 6 well dishes at 1.5×10^5 cells/ml in a volume of 2.5 ml, next day cells were treated −/+50 ul of 5 μM Smac Mimetic, JP1010, (final concentration: 100 nM) for 4 hr.
(§3) RNA Isolation: cells were washed 2× with 2 ml PBS followed by isolation of RNA from 6 well dishes using Qiagen RNAeasy kit or TRIzol reagent (Invitrogen) according to manufacturer's protocol. RNA isolation with TRIzol was conducted by adding 1 ml of TRIzol reagent to each well and pipetting up and down several times before transferring lysate to 1.5 ml microfuge tube. […] RNA concentration was measured. […]
(§4) Semi-quantitative RT-PCR for TNFα and Actin were performed as follows: Control semi-quantitative Actin PCR were conducted in a 25 ul reaction mixture with the following cycle condition: 94° C. […] TNFa semi quantitative PCR were conducted in a 25 ul reaction mixture with the following cycle conditions: 94° C.-2 min, 30-35 cycles (depending on cell line) of 94° C.-30 sec, 59° C.-30 sec, 72° C.-1 min, followed by 72° C. for 10 min. […]

The subject of the next test is cIAP2 mRNA. Kind of test: cIAP2 mRNA level in Colo205 cells. The test is classed as cell-based. Conditions: MS-275 alone.
The test system of test [2] is acetylated Histone H4 levels at the TNFα locus. Kind of test: ChIP of acetylated histone H4 at the TNFα locus in MDA-MB231 cells. The test is classed as cell-based. The note with it: 5 mM NaBu. The procedure:
Purpose: This procedure evaluates the localization of specific proteins or their modified forms on chromatin. For our purpose to specifically evaluate the levels of modified histones and cofactors bound to the Tumor Necrosis Factor (TNFa) gene promoter.
ChIP Lysis buffer contained 1% SDS, 10 mM EDTA, 50 mM Tris-HCl, pH8.1, 1× protease inhibitor cocktail (Roche). ChIP Dilution buffer contained 1% Triton x-100, 2 mM EDTA, 150 mM NaCl, 20 mM Tris-HCl, pH8.1, 1× protease inhibitor cocktail (Roche). Wash Buffer I contained 0.1% SDS, 1% Triton x-100, 2 mM EDTA, 150 mM NaCl, 20 mM Tris-HCl, pH8.1. Wash Buffer II contained wash buffer I with 500 mM NaCl. Wash Buffer III contained 0.25M LiCl, 1% NP-40, 1% deoxycholate, 1 mM EDTA, 10 mM Tris-HCl, pH8.1. TE buffer contained 10 mM Tris-HCl, pH 7.5, 0.1 mM EDTA. ChIP Extraction buffer contained 1% SDS, 0.1M NaHCO3. Antibodies used include anti-histone H3 (Abcam, ab1791), anti-hyperacetylated histone H4 (Millipore, 06-946), anti-dimethyl-histone H3k4 (Millipore, 07-030), anti-dimethyl histone H3K9 (Abcam, ab1220), anti-histone H4 (Millipore, 05-858), anti-acetylated H3 (Millipore, 06-599), anti-acetylated H4 (Millipore, 06-866).
Cells were plated on either 10 cm or 15 cm tissue culture dishes (˜1×10^6). At 80-100% confluency cells were crosslinked by the addition of 37% formaldehyde (final concentration 1%) directly to the cell medium. […]

The subject of test [3] is TNFα mRNA. The test can be described thus: TNFα mRNA by RT-PCR in H2073 cells. The note with it: FIG. 5 legend. The test is classed as cell-based, human. How it is done: as §1, §2, §3, §4

In the case of `Nc1ccccc1NC(=O)c1ccc(CNC(=O)OCc2cccnc2)cc1` [MS-275], the “Smac mimetic-induced TNFα production” value with TNFα mRNA [1] (FIG. 4 legend) is reported as “Primes”. Further, the “production of TNFα mRNA” value with TNFα mRNA [1] (agent alone) was “increased”. For the same compound, in the test on cIAP2 mRNA, the “mRNA level of cIAP2” value is recorded as “increased”.

Turning to `CCCC(=O)[O-].[Na+]` [NaBu, Sodium butyrate], the “increase of the level of acetylated H4” value in test [2] is on record as 4-5 fold. In addition, the “Smac mimetic-induced TNFα production” value in the test with TNFα mRNA [3] is reported as “increases”.
